According to ChEMBL document CHEMBL4270577, “Synthesis, anticancer activity and molecular modeling studies of 1,2,4-triazole derivatives as EGFR inhibitors” (Eur J Med Chem, 2018):

Legend:
[1] = test system: NCI-H322M; assay: Growth inhibition of human NCI-H322M cells at 10 uM incubated for 48 hrs by sulforhodamine B assay relative to control; assay type: functional; conditions: read-out: GI
[2] = test system: 786-0; assay: Growth inhibition of human 786-0 cells at 10 uM incubated for 48 hrs by sulforhodamine B assay relative to control; assay type: functional; conditions: 786-0, 48 h, read-out: GI
[3] = test system: NCI/ADR-RES; assay: Growth inhibition of human NCI/ADR-RES cells at 10 uM incubated for 48 hrs by sulforhodamine B assay relative to control; assay type: functional; conditions: read-out: GI
[4] = test system: HL-60(TB); assay: Growth inhibition of human HL-60(TB) cells at 10 uM incubated for 48 hrs by sulforhodamine B assay relative to control; assay type: functional; conditions: HL-60, 48 h, read-out: GI
[5] = test system: UO-31; assay: Growth inhibition of human UO31 cells at 10 uM incubated for 48 hrs by sulforhodamine B assay relative to control; assay type: functional; conditions: UO-31, 48 h, read-out: GI
[6] = test system: NCI-H23; assay: Growth inhibition of human NCI-H23 cells at 10 uM incubated for 48 hrs by sulforhodamine B assay relative to control; assay type: functional; conditions: NCI-H23, 48 h, read-out: GI
[7] = test system: DU-145; assay: Growth inhibition of human DU145 cells at 10 uM incubated for 48 hrs by sulforhodamine B assay relative to control; assay type: functional; conditions: DU-145, 48 h, read-out: GI
[8] = test system: RPMI-8226; assay: Growth inhibition of human RPMI8226 cells at 10 uM incubated for 48 hrs by sulforhodamine B assay relative to control; assay type: functional; conditions: RPMI-8226, 48 h, read-out: GI
[9] = test system: SF-295; assay: Growth inhibition of human SF295 cells at 10 uM incubated for 48 hrs by sulforhodamine B assay relative to control; assay type: functional; conditions: SF-295, 48 h, read-out: GI
[10] = test system: SNB-19; assay: Growth inhibition of human SNB19 cells at 10 uM incubated for 48 hrs by sulforhodamine B assay relative to control; assay type: functional; conditions: SNB-19, 48 h, read-out: GI
[11] = test system: SNB-75; assay: Growth inhibition of human SNB75 cells at 10 uM incubated for 48 hrs by sulforhodamine B assay relative to control; assay type: functional; conditions: SNB-75, 48 h, read-out: GI
[12] = test system: MDA-MB-231; assay: Growth inhibition of human MDA-MB-231/ATCC cells at 10 uM incubated for 48 hrs by sulforhodamine B assay relative to control; assay type: functional; conditions: MDA-MB-231, 48 h, read-out: GI
[13] = test system: MCF7; assay: Growth inhibition of human MCF7 cells at 10 uM incubated for 48 hrs by sulforhodamine B assay relative to control; assay type: functional; conditions: MCF7, 48 h, read-out: GI
[14] = test system: PANC-1; assay: Antiproliferative activity against human PANC1 cells after 48 hrs by propidium iodide staining-based fluorometric analysis; assay type: functional, cell-based; conditions: PANC-1, 48 h
[15] = test system: Hs-578T; assay: Growth inhibition of human Hs 578T cells at 10 uM incubated for 48 hrs by sulforhodamine B assay relative to control; assay type: functional; conditions: read-out: GI
[16] = test system: SF-268; assay: Growth inhibition of human SF268 cells at 10 uM incubated for 48 hrs by sulforhodamine B assay relative to control; assay type: functional; conditions: SF-268, 48 h, read-out: GI
[17] = test system: SK-MEL-2; assay: Growth inhibition of human SK-MEL-2 cells at 10 uM incubated for 48 hrs by sulforhodamine B assay relative to control; assay type: functional; conditions: SK-MEL-2, 48 h, read-out: GI
[18] = test system: MIA PaCa-2; assay: Antiproliferative activity against human MIAPaCa2 cells after 48 hrs by propidium iodide staining-based fluorometric analysis; assay type: functional, cell-based; conditions: MIA PaCa-2, 48 h
[19] = test system: SR; assay: Growth inhibition of human SR cells at 10 uM incubated for 48 hrs by sulforhodamine B assay relative to control; assay type: functional; conditions: read-out: GI
[20] = test system: HCC 2998; assay: Growth inhibition of human HCC2998 cells at 10 uM incubated for 48 hrs by sulforhodamine B assay relative to control; assay type: functional; conditions: HCC 2998, 48 h, read-out: GI
[21] = test system: U-251; assay: Growth inhibition of human U251 cells at 10 uM incubated for 48 hrs by sulforhodamine B assay relative to control; assay type: functional; conditions: U-251, 48 h, read-out: GI
[22] = test system: MDA-MB-468; assay: Growth inhibition of human MDA-MB-468 cells at 10 uM incubated for 48 hrs by sulforhodamine B assay relative to control; assay type: functional; conditions: MDA-MB-468, 48 h, read-out: GI
[23] = test system: PC-3; assay: Growth inhibition of human PC3 cells at 10 uM incubated for 48 hrs by sulforhodamine B assay relative to control; assay type: functional; conditions: PC-3, 48 h, read-out: GI
[24] = test system: SK-OV-3; assay: Growth inhibition of human SKOV3 cells at 10 uM incubated for 48 hrs by sulforhodamine B assay relative to control; assay type: functional; conditions: SK-OV-3, 48 h, read-out: GI
[25] = test system: ACHN; assay: Growth inhibition of human ACHN cells at 10 uM incubated for 48 hrs by sulforhodamine B assay relative to control; assay type: functional; conditions: read-out: GI
[26] = test system: M14; assay: Growth inhibition of human M14 cells at 10 uM incubated for 48 hrs by sulforhodamine B assay relative to control; assay type: functional; conditions: M14, 48 h, read-out: GI
[27] = test system: T47D; assay: Growth inhibition of human T47D cells at 10 uM incubated for 48 hrs by sulforhodamine B assay relative to control; assay type: functional; conditions: read-out: GI
[28] = test system: UACC-62; assay: Growth inhibition of human UACC62 cells at 10 uM incubated for 48 hrs by sulforhodamine B assay relative to control; assay type: functional; conditions: UACC-62, 48 h, read-out: GI
[29] = test system: UACC-257; assay: Growth inhibition of human UACC257 cells at 10 uM incubated for 48 hrs by sulforhodamine B assay relative to control; assay type: functional; conditions: UACC-257, 48 h, read-out: GI
[30] = test system: OVCAR-4; assay: Growth inhibition of human OVCAR4 cells at 10 uM incubated for 48 hrs by sulforhodamine B assay relative to control; assay type: functional; conditions: OVCAR-4, 48 h, read-out: GI
[31] = test system: IGROV-1; assay: Growth inhibition of human IGROV1 cells at 10 uM incubated for 48 hrs by sulforhodamine B assay relative to control; assay type: functional; conditions: IGROV-1, 48 h, read-out: GI
[32] = test system: OVCAR-3; assay: Growth inhibition of human OVCAR3 cells at 10 uM incubated for 48 hrs by sulforhodamine B assay relative to control; assay type: functional; conditions: OVCAR-3, 48 h, read-out: GI
[33] = test system: HCT-116; assay: Growth inhibition of human HCT116 cells at 10 uM incubated for 48 hrs by sulforhodamine B assay relative to control; assay type: functional; conditions: HCT-116, 48 h, read-out: GI
[34] = test system: SN12C; assay: Growth inhibition of human SN12C cells at 10 uM incubated for 48 hrs by sulforhodamine B assay relative to control; assay type: functional; conditions: read-out: GI
[35] = test system: KM12; assay: Growth inhibition of human KM12 cells at 10 uM incubated for 48 hrs by sulforhodamine B assay relative to control; assay type: functional; conditions: KM12, 48 h, read-out: GI
[36] = test system: NCI-H460; assay: Growth inhibition of human NCI-H460 cells at 10 uM incubated for 48 hrs by sulforhodamine B assay relative to control; assay type: functional; conditions: NCI-H460, 48 h, read-out: GI

Compound: COc1ccc(-c2nc3sc(-c4ccccc4)cn3n2)cc1
- inhibition of growth at 10 µM [1]: 14%
- inhibition of growth at 10 µM [2]: 11%
- inhibition of growth at 10 µM [3]: 66%
- inhibition of growth at 10 µM [4]: 32%
- inhibition of growth at 10 µM [5]: 38%
- inhibition of growth at 10 µM [6]: 28%
- inhibition of growth at 10 µM [7]: 16%
- inhibition of growth at 10 µM [8]: 21%
- inhibition of growth at 10 µM [9]: 38%
- inhibition of growth at 10 µM [10]: 34%
- inhibition of growth at 10 µM [11]: 34%
- inhibition of growth at 10 µM [12]: 53%
- inhibition of growth at 10 µM [13]: 74%
- IC50 [14]: 4.5 µM
- inhibition of growth at 10 µM [15]: 40%
- inhibition of growth at 10 µM [16]: 28%
- inhibition of growth at 10 µM [17]: 40%
- IC50 [18]: 4.9 µM
- inhibition of growth at 10 µM [19]: 58%
- inhibition of growth at 10 µM [20]: 22%
- inhibition of growth at 10 µM [21]: 21%
- inhibition of growth at 10 µM [22]: 81%
- inhibition of growth at 10 µM [23]: 33%
- inhibition of growth at 10 µM [24]: 32%
- inhibition of growth at 10 µM [25]: 32%
- inhibition of growth at 10 µM [26]: 71%
- inhibition of growth at 10 µM [27]: 65%
- inhibition of growth at 10 µM [28]: 42%
- inhibition of growth at 10 µM [29]: 28%
- inhibition of growth at 10 µM [30]: 37%
- inhibition of growth at 10 µM [31]: 52%
- inhibition of growth at 10 µM [32]: 41%
- inhibition of growth at 10 µM [33]: 60%
- inhibition of growth at 10 µM [34]: 37%
- inhibition of growth at 10 µM [35]: 70%
- inhibition of growth at 10 µM [36]: 65%

Compound: COc1ccc(-c2nc3sc(-c4ccc(Cl)cc4)cn3n2)cc1
- inhibition of growth at 10 µM [1]: 82.2%
- inhibition of growth at 10 µM [2]: -75.8%
- inhibition of growth at 10 µM [3]: 54.4%
- inhibition of growth at 10 µM [5]: -7.46%
- inhibition of growth at 10 µM [6]: 41.5%
- inhibition of growth at 10 µM [7]: 19.3%
- inhibition of growth at 10 µM [8]: 55.1%
- inhibition of growth at 10 µM [9]: 75.8%
- inhibition of growth at 10 µM [10]: -1.95%
- inhibition of growth at 10 µM [11]: -1.66%
- inhibition of growth at 10 µM [12]: 86.7%
- inhibition of growth at 10 µM [13]: 51.1%
- IC50 [14]: 2.8 µM
- inhibition of growth at 10 µM [15]: 73%
- inhibition of growth at 10 µM [16]: 34.9%
- IC50 [18]: 2.6 µM
- inhibition of growth at 10 µM [19]: 48.9%
- inhibition of growth at 10 µM [20]: 21.4%
- inhibition of growth at 10 µM [21]: -67.9%
- inhibition of growth at 10 µM [22]: 66.6%
- inhibition of growth at 10 µM [23]: 41.9%
- inhibition of growth at 10 µM [24]: 50.5%
- inhibition of growth at 10 µM [25]: -74%
- inhibition of growth at 10 µM [26]: 9%
- inhibition of growth at 10 µM [27]: 45.1%
- inhibition of growth at 10 µM [28]: 31.4%
- inhibition of growth at 10 µM [29]: 15.4%
- inhibition of growth at 10 µM [30]: -63.3%
- inhibition of growth at 10 µM [31]: 92.9%
- inhibition of growth at 10 µM [32]: 75.3%
- inhibition of growth at 10 µM [33]: -16%
- inhibition of growth at 10 µM [34]: 94.7%
- inhibition of growth at 10 µM [35]: 45.3%
- inhibition of growth at 10 µM [36]: -39%
